Reference: patent US7754852B2, “Natriuretic polypeptides” (Mayo Foundation for Medical Education and Research, priority 2007, dated 2010)
Where a SMILES comes first, the peptide text is derived from it. Bridges are numbered along the chain shown (N, C = ends). Where no end group is shown, it is not given here.

How the values were obtained:
normal anesthetized dogs [1] = experiment: Cardiorenal function in normal anesthetized dogs, consecutive i.v. infusions of 10, 50 and 100 ng/kg/minute; format: in vivo, dog
Experimental: Cardiorenal function was assessed in three normal anesthetized dogs. […] Tubular Na^+ reabsorption and GFR were assessed by clearance of Li^+ and inulin, respectively. Neurohormones were quantified by radioimmunoassays. Data were analyzed by repeated measures ANOVA followed by Dunnett's test.

normal anesthetized dogs [2] = experiment: Hemoconcentrating effects (hematocrit) of i.v. infusion at 14 pmol/kg/minute in normal anesthetized dogs; format: in vivo, dog
Experimental: Three human NPs (BNP, CNP, URO, and CU-NP were studied to evaluate their effects on vascular permeability as manifested by an increase in hematocrit. Normal anesthetized dogs received i.v. infusions of BNP (n=7), CNP (n=6), URO (n=5), or CU-NP (n=6) at 14 pmol/kg/minute. Blood was collected in EDTA tubes on ice and centrifuged. Data are reported for base-line and at 60 minutes of infusion. In addition to increasing hematocrit (Table 5), CU-NP reduced PCW pressure in vivo (baseline 6±0.9 mmHg, 60 minutes 3±0.9 mmHg; P<0.05). Thus, hemoconcentrating effects of CU-NP may contribute to its cardiac-unloading actions in vivo.

[3] = test system: human aortic endothelial cells (HAEC); experiment: cGMP response in HAEC in the absence or presence of NPR-B antibody; format: cell-based; details: 10^−6 M, 10 minutes
Experimental: (§1) cGMP responses to the 3 peptides also were assessed in glomeruli isolated from canine kidneys upon harvest, in the presence or absence of an NPR-A antagonist, […] (1 μM), or an NPR-B antagonist, […] (1 μM), or both antagonists added sequentially (A71915 followed by […], 1 μM final concentration for both). To confirm the involvement of NPR-B in the cGMP response to CU-NP, additional experiments were conducted using human aortic endothelial cells (HAEC). Cyclic GMP response was determined by incubating CU-NP (10^-6 M) for 10 minutes in the absence or presence of an antibody to the ligand-binding domain of NPR-B. In vitro data (mean±SEM) were analyzed by one-way ANOVA followed by Bonferroni's post-test. Statistical significance was defined as P<0.05. GraphPad Prism 4 (GraphPad Software, San Diego, Calif.) was used for statistical analyses.

[4] = test system: isolated canine glomeruli; experiment: cGMP stimulation in isolated canine glomeruli; format: cell-based; details: 10^−5 M
Experimental: Experiments were conducted to determine whether CU-NP directly stimulates cGMP in isolated glomeruli, and to compare the cGMP-activating actions of CU-NP with CNP, URO, and CNP-C, which consisted of the full-length 22-AA of CNP with a duplicate of the N-terminus fused in the C-terminal position. Glomeruli were isolated upon harvest of normal canine kidneys. CU-NP, CNP, URO, and CNP-C (10^−5 M) were incubated with glomeruli vs. control. Cyclic GMP was measured by RIA, with correction for protein levels. CU-NP and URO elicited greater cGMP responses than respective controls (P<0.01), but without difference between groups. CU-NP and URO stimulated greater cGMP responses vs. CNP and vs. CNP-C (P<0.001).

normal anesthetized dogs [5] = experiment: Renal, cardiovascular and neurohumoral effects of i.v. infusion at 50 ng/kg/minute for 75 minutes in normal anesthetized dogs; format: in vivo, dog
Experimental: CU-NP or CNP polypeptide was intravenously infused into normal anesthetized dogs at 50 ng/kg/minute for 75 minutes. Blood and urine samples were collected pre-infusion (pre-I), at 30 and 60 minutes of infusion, and post-infusion (post-I). Inulin clearance was used for assessment of glomerular filtration rate (GFR). The lithium clearance technique was used for measurement of proximal and distal fractional reabsorption of Na^+ (PFRNa and DFRNa, respectively). Comparisons at the latter three time points versus pre-I were made. Student's t-test was used when comparing results for two time points, whereas repeated measures ANOVA was used to compare four time points.

normal anesthetized dogs [6] = experiment: In vivo renal perfusion pressure, i.v. infusion at 14.14 pmol/kg/minute for 75 minutes; set-up: species or system dog; details: RPP estimated by MAP−RAP
Experimental: Studies were conducted to determine the in vivo actions of CNP, CU-NP and URO on renal perfusion pressure (RPP, as estimated by MAP-RAP), as RPP is a key determinant of renal function. Given the GFR-enhancing action of CU-NP, in vitro studies also were done to test the hypothesis that CU-NP (unlike CNP) also activates NPR-A, a potent renal acting NP receptor. Equimolar doses of CU-NP, human CNP, or human URO were intravenously infused at 14.14 pmol/kg/minute into 17 normal anesthetized dogs for 75 minutes. RPP was assessed at baseline and at 60 minutes of infusion. Data are expressed as mean±SEM. Clearances were measured from the 16th to the 45th minute and from the 46th to the 75th minute following initiation of peptide infusion. Within each group, 2-tailed paired t-test was used to compare RPP at 60 minutes of peptide infusion vs. baseline. Comparisons between groups were made by two-way ANOVA followed by Bonferroni post-test.

[7] = test system: isolated canine glomeruli; experiment: cGMP response in isolated canine glomeruli with or without NPR-A antagonist and NPR-B antagonist; format: cell-based; details: 10^−5 M, no antagonist
Experimental: as §1

[8] = 60 min of i.v. infusion at 14 pmol/kg/minute
[9] = 30 minutes of infusion, 50 ng/kg/minute i.v.
[10] = 60 minutes of infusion, 50 ng/kg/minute i.v.
[11] = 60 minutes of i.v. infusion at 14.14 pmol/kg/minute

CC[C@H](C)[C@@H]1NC(=O)[C@H](CCCNC(=N)N)NC(=O)[C@H](CC(=O)O)NC(=O)[C@H](CC(C)C)NC(=O)[C@H](CCCCN)NC(=O)[C@H](CC(C)C)NC(=O)CNC(=O)[C@H](Cc2ccccc2)NC(=O)[C@@H](NC(=O)[C@H](CO)NC(=O)[C@H](CO)NC(=O)[C@H](CCCNC(=N)N)NC(=O)[C@H](CCCNC(=N)N)NC(=O)[C@H](CC(C)C)NC(=O)[C@H](CO)NC(=O)[C@H](CCCNC(=N)N)NC(=O)[C@@H]2CCCN2C(=O)[C@H](C)NC(=O)[C@@H](N)[C@@H](C)O)CSSC[C@@H](C(=O)N[C@@H](CC(N)=O)C(=O)N[C@@H](CO)C(=O)N[C@@H](Cc2ccccc2)C(=O)N[C@@H](CCCNC(=N)N)C(=O)N[C@@H](Cc2ccc(O)cc2)C(=O)O)NC(=O)CNC(=O)[C@H](CC(C)C)NC(=O)CNC(=O)[C@H](CO)NC(=O)[C@H](CCSC)NC(=O)[C@H](CO)NC(=O)CNC1=O [CU-NP] (H-TAPRSLRRSSCFGLKLDRIGSMSGLGCNSFRY-OH; disulfide 11-27)
QTc interval (normal anesthetized dogs [1]; end of infusion at 100 ng/kg/minute): 329 ± 15 ms | QTc interval (normal anesthetized dogs [1]; pre-infusion): 323 ± 6 ms

BNP: human NP (natriuretic peptide) BNP
Hematocrit (mean ± SEM) (normal anesthetized dogs [2]; [8]): 40 ± 2 % | Hematocrit (mean ± SEM) (normal anesthetized dogs [2]; Baseline): 36 ± 1%

CNP: human CNP, mature natriuretic polypeptide of 22 amino acids
Hematocrit (mean ± SEM) (normal anesthetized dogs [2]; [8]): 37 ± 1% | Hematocrit (mean ± SEM) (normal anesthetized dogs [2]; Baseline): 36 ± 1% | cGMP ([3]; in the presence of the NPR-B antibody (1:100)): 0.08 ± 0.01 pmol/mL | cGMP ([3]; no antibody): 0.17 ± 0.04 pmol/mL | cGMP (mean ± SEM) [4]: 0.0019 ± 0.0005 fmol/µg | DFRNa+ (normal anesthetized dogs [5]; [9]): 98 ± 0.8% | GFR (normal anesthetized dogs [5]; [9]): 42 ± 4 mL/min | Na^+ excretion (normal anesthetized dogs [5]; [9]): 56 ± 21 μEq/min | PFRNa+ (normal anesthetized dogs [5]; [9]): 67 ± 3% | Plasma cGMP (normal anesthetized dogs [5]; [9]): 11 ± 1 pmol/mL | Renal generation of cGMP (normal anesthetized dogs [5]; [9]): 452 ± 202 pmol/min | Urinary cGMP excretion (normal anesthetized dogs [5]; [9]): 1119 ± 102 pmol/min | Urine flow (normal anesthetized dogs [5]; [9]): 0.3 ± 0.06 mL/min | DFRNa+ (normal anesthetized dogs [5]; [10]): 98 ± 0.5% | GFR (normal anesthetized dogs [5]; [10]): 39 ± 3 mL/min | Na^+ excretion (normal anesthetized dogs [5]; [10]): 71 ± 8 μEq/min | PFRNa+ (normal anesthetized dogs [5]; [10]): 51 ± 7 % | Plasma cGMP (normal anesthetized dogs [5]; [10]): 12 ± 1 pmol/mL | Renal generation of cGMP (normal anesthetized dogs [5]; [10]): 603 ± 199 pmol/min | Urinary cGMP excretion (normal anesthetized dogs [5]; [10]): 1338 ± 81 pmol/min | Urine flow (normal anesthetized dogs [5]; [10]): 0.4 ± 0.02 mL/min | DFRNa+ (normal anesthetized dogs [5]; post-infusion): 99 ± 0.2% | GFR (normal anesthetized dogs [5]; post-infusion): 44 ± 3 mL/min | Na^+ excretion (normal anesthetized dogs [5]; post-infusion): 30 ± 8 μEq/min | PFRNa+ (normal anesthetized dogs [5]; post-infusion): 68 ± 3 % | Plasma cGMP (normal anesthetized dogs [5]; post-infusion): 12 ± 1 pmol/mL | Renal generation of cGMP (normal anesthetized dogs [5]; post-infusion): 582 ± 91 pmol/min | Urinary cGMP excretion (normal anesthetized dogs [5]; post-infusion): 1090 ± 76 pmol/min | Urine flow (normal anesthetized dogs [5]; post-infusion): 0.3 ± 0.04 mL/min | DFRNa+ (normal anesthetized dogs [5]; pre-infusion): 99 ± 0.5% | GFR (normal anesthetized dogs [5]; pre-infusion): 38 ± 4 mL/min | Na^+ excretion (normal anesthetized dogs [5]; pre-infusion): 16 ± 6 μEq/min | PFRNa+ (normal anesthetized dogs [5]; pre-infusion): 83 ± 3% | Plasma cGMP (normal anesthetized dogs [5]; pre-infusion): 8 ± 1 pmol/mL | Renal generation of cGMP (normal anesthetized dogs [5]; pre-infusion): 491 ± 65 pmol/min | Urinary cGMP excretion (normal anesthetized dogs [5]; pre-infusion): 830 ± 74 pmol/min | Urine flow (normal anesthetized dogs [5]; pre-infusion): 0.1 ± 0.02 mL/min | RPP (mean ± SEM) (normal anesthetized dogs [6]; [11]): 123 ± 8 mmHg | RPP (mean ± SEM) (normal anesthetized dogs [6]; Pre-I): 120 ± 4 mmHg

URO: human urodilatin, natriuretic polypeptide (TAPRSLRRSSCFGGRMDRIGAQSGLGCNSFRY; ends and bridges not checked; cysteine pairing not given here; UniProt P01160 120-151, looked up)
Hematocrit (mean ± SEM) (normal anesthetized dogs [2]; [8]): 40 ± 1 % | Hematocrit (mean ± SEM) (normal anesthetized dogs [2]; Baseline): 37 ± 1% | cGMP (mean ± SEM) [4]: 0.69 ± 0.07 fmol/µg | cGMP [7]: 0.54 ± 0.10 fmol/µg | RPP (mean ± SEM) (normal anesthetized dogs [6]; [11]): 119 ± 4 mmHg | RPP (mean ± SEM) (normal anesthetized dogs [6]; Pre-I): 127 ± 4 mmHg
